Reference: PubChem BioAssay AID386

Molecular target: GTP-binding protein Di-Ras1 (Homo sapiens) (UniProt O95057)
Test: DIRAS1 binders by thermal stabilization, biophysical, recombinant human GTPase, DSF (AID 386)
Conditions: SYPRO orange, at 10 µM, protein 2 µM, buffer 10 mM HEPES, pH 7.5, NaCl 150 mM, stronger effect = higher value

Sequence of GTP-binding protein Di-Ras1 (Homo sapiens) (O95057 whole entry, looked up): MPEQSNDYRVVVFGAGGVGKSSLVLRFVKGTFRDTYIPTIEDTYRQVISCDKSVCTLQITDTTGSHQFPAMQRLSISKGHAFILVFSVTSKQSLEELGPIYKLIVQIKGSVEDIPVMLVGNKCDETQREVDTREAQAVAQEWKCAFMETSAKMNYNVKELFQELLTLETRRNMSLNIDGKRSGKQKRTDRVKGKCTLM

Tm shift [Celsius]	Compound
2.1	NS(=O)(=O)c1ccc(Nc2nc(OCC3CCCCC3)c3[nH]cnc3n2)cc1
4.4	COc1ccc(S(O)(O)N(CCO)c2ccccc2CN(C)C/C=C/c2ccc(Cl)cc2)cc1
3.3	O=c1c(O)c(-c2ccc(O)c(O)c2)oc2cc(O)cc(O)c12

Compound	Tm shift [Celsius]
CN[C@@H]1C[C@H]2OC(C)([C@@H]1OC)n1c3ccccc3c3c4c(c5c6ccccc6n2c5c31)C(=O)NC4	2.6
